{"source": "patent US20260085040A1", "about": "“AMINO ACID AND CA[…] DERIVATIVES” (priority 2022, published 2026)", "origin": "cited, not measured here", "key": {"[1]": {"conditions": "controlled clinical environment, subjects with OCD"}, "[2]": {"conditions": "10 patients with alcohol dependence per DSM-IV"}}}
{"smiles": "CN(C)CCc1c[nH]c2cccc(OP(=O)(O)O)c12", "note": "[psilocybin]", "values": [{"measurement": "Core OCD symptoms", "setting": "[1]", "result": "acute reductions in core OCD symptoms in several subjects"}, {"measurement": "Safety of administration", "setting": "[1]", "result": "safely administered"}, {"measurement": "Participants with biologically verified 7-day point-prevalence abstinence", "setting": "6-month follow up", "result": "eighty"}, {"measurement": "Participants biologically verified as being abstinent", "setting": "12-month follow-up", "result": 67, "unit": "%"}, {"measurement": "Participants abstinent", "setting": "follow-up 2.5 years after the target quit date", "result": 75, "unit": "%"}, {"measurement": "Alcohol use post psilocybin administration", "setting": "[2]", "result": "significant decrease in alcohol use"}]}
